# Test results taken from patent publication US9403835B2, “Tetraaza-cyclopenta[a]indenyl and their use as positive allosteric modulators” (Merck Patent GmbH, priority 2011, dated 2016).
# How the values were obtained:
# [1] = target: T1, muscarinic M1 receptor (Homo sapiens, UniProt P11229); assay: M1 PAM Assay (IP-One HTRF, IP1 in M1-CHO cells with EC20 of acetylcholine); format: cell-based; conditions: 1 hour at room temperature, IP1 readout
# T1 construct: expressed in transfected cells; host or cells: CHO (M1-CHO cells)
# T1 sequence (P11229 1-460): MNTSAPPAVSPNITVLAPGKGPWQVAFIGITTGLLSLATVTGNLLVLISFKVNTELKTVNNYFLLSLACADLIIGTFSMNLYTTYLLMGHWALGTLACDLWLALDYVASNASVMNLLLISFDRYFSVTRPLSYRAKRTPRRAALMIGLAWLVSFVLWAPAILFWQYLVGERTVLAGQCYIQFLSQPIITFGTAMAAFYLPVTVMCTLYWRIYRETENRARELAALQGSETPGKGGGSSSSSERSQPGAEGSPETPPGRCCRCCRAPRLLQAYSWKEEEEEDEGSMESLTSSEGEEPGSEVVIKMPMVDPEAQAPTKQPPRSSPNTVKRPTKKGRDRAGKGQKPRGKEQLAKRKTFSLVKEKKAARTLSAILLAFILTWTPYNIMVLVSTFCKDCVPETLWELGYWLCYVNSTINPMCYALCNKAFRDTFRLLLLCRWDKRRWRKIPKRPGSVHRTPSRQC
# Description: M1-CHO cells are plated in culture medium (HAM's F12, P/S, 10% FCS) on the day before the experiment with 10 000 cells/well in a 384 well plate (3750 Corning White 384 w plate with lid). On the day of experiment, cells are washed with PBS and IPone buffer is added (glucose 5.5 mM, NaCl 146 mM, MgCl2 0.5 mM, HEPES 10 mM, LiCl 50 mM, CaCl2 1 mM, KCl 4.2 mM). Then diluted compounds (1% DMSO final concentration) are added together with EC20 of acetylcholine and incubated with the cells for 1 hour at room temperature. The intracellular concentration of IP1 is then measured using the IP-One HTRF assay from Cisbio.
SMILES,melting point [°C],EC50 [1] [nM]
"Cc1nc2c3c(nn2c(C)c1Cl)CN(C(=O)c1ccccc1CN1CCCC(N)C1)C3 (stereo not drawn) [Example 125, [2-(3-amino-piperidin-1-ylmethyl)-phenyl]-(6-chloro-5,7-dimethyl-1H,3H-2,4,7a,8-tetraaza-cyclopenta[a]inden-2-yl)-methanone]",165 to 170,–
"COc1c(F)cc(F)cc1C(=O)N1Cc2nn3c(C)c(Cl)c(C)nc3c2C1 [Example 16, (6-chloro-5,7-dimethyl-1H,3H-2,4,7a,8-tetraaza-cyclopenta[a]inden-2-yl)-(3,5-difluoro-2-methoxy-phenyl)-methanone]",185 to 187,200 to 1000
"CCOc1c(F)cc(F)cc1C(=O)N1Cc2nn3c(C)c(Cl)c(C)nc3c2C1 [Example 28, (6-chloro-5,7-dimethyl-1H,3H-2,4,7a,8-tetraaza-cyclopenta[a]inden-2-yl)-(2-ethoxy-3,5-difluoro-phenyl)-methanone]",153 to 155,1000 to 2000
"Cc1nc2c3c(nn2c(C)c1Cl)CN(C(=O)c1ccccc1CN1CCCN(C)CC1)C3 [Example 95, (6-Chloro-5,7-dimethyl-1H,3H-2,4,7a,8-tetraaza-cyclopenta[a]inden-2-yl)-[2-(4-methyl-[1,4]diazepan-1-ylmethyl)-phenyl]-methanone]",138 to 141,–
"Cc1nc2c3c(nn2c(C)c1Cl)CN(C(=O)c1ccccc1CN1CCC(O)C1)C3 (stereo not drawn) [Example 72, (6-chloro-5,7-dimethyl-1H,3H-2,4,7a,8-tetraaza-cyclopenta[a]inden-2-yl)-[2-(3-hydroxy-pyrrolidin-1-ylmethyl)-phenyl]-methanone]",210 to 217,–
"Cc1nc2c3c(nn2c(C)c1Cl)CN(C(=O)c1ccccc1CN1CCNC(C)C1)C3 (stereo not drawn) [Example 116, (6-chloro-5,7-dimethyl-1H,3H-2,4,7a,8-tetraaza-cyclopenta[a]inden-2-yl)-[2-(3-methyl-piperazin-1-ylmethyl)-phenyl]-methanone]",195 to 200,–
"CCCCOc1ccccc1C(=O)N1Cc2nn3c(C)c(Cl)c(C)nc3c2C1 [Example 11, (2-butoxy-phenyl)-(6-chloro-5,7-dimethyl-1H,3H-2,4,7a,8-tetraaza-cyclopenta[a]inden-2-yl)-methanone]",167 to 169,200 to 1000
"Cc1nc2c3c(nn2c(C)c1Cl)CN(C(=O)c1ccccc1CN1CCCNCC1)C3 [Example 118, (6-chloro-5,7-dimethyl-1H,3H-2,4,7a,8-tetraaza-cyclopenta[a]inden-2-yl)-(2-[1,4]diazepan-1-ylmethyl-phenyl)-methanone]",185 to 192,–
"Cc1nc2c3c(nn2c(C)c1Cl)CN(C(=O)c1ccccc1CN1CCN2CCCC2C1)C3 (stereo not drawn) [Example 97, (6-chloro-5,7-dimethyl-1H,3H-2,4,7a,8-tetraaza-cyclopenta[a]inden-2-yl)-[2-(hexahydro-pyrrolo[1,2-a]pyrazin-2-ylmethyl)-phenyl]-methanone]",180 to 182,–
"Cc1nc2c3c(nn2c(C)c1Cl)CN(C(=O)c1ccccc1CN1CCNCC1=O)C3 [Example 117, 1-[2-(6-chloro-5,7-dimethyl-1H,3H-2,4,7a,8-tetraaza-cyclopenta[a]indene-2-carbonyl)-benzyl]-piperazin-2-one]",176 to 183,–
"Cc1nc2c3c(nn2c(C)c1Cl)CN(C(=O)c1ccccc1CN1CC(N(C)C)C1)C3 [Example 126, (6-chloro-5,7-dimethyl-1H,3H-2,4,7a,8-tetraaza-cyclopenta[a]inden-2-yl)-[2-(3-dimethylamino-azetidin-1-ylmethyl)-phenyl]-methanone]",159 to 162,–
"CCOc1ccc(Br)cc1C(=O)N1Cc2nn3c(C)c(C)c(C)nc3c2C1 [Example 45, (5-bromo-2-ethoxy-phenyl)-(5,6,7-trimethyl-1H,3H-2,4,7a,8-tetraaza-cyclopenta[a]inden-2-yl)-methanone]",208 to 215,1000 to 2000
"Cc1nc2c3c(nn2c(C)c1Cl)CN(C(=O)c1ccccc1OCC(C)C)C3 [Example 30, (6-Chloro-5,7-dimethyl-1H,3H-2,4,7a,8-tetraaza-cyclopenta[a]inden-2-yl)-(2-isobutoxy-phenyl)-methanone]",184 to 187,1000 to 2000
"Cc1nc2c3c(nn2c(C)c1Cl)CN(C(=O)c1ccccc1CN1C[C@H]2CN(C)C[C@H]2C1)C3 [Example 94, (6-chloro-5,7-dimethyl-1H,3H-2,4,7a,8-tetraaza-cyclopenta[a]inden-2-yl)-[2-((3aR,6aS)-5-methyl-hexahydro-pyrrolo[3,4-c]pyrrol-2-ylmethyl)-phenyl]-methanone]",174 to 177,–

# Further lines, results first:
melting point [°C],EC50 [1] [nM],SMILES
194 to 196,–,"O=C(c1ccccc1OC(F)(F)C(F)F)N1Cc2nn3cc(Cl)cnc3c2C1 [Example 106, (6-chloro-1H,3H-2,4,7a,8-tetraaza-cyclopenta[a]inden-2-yl)-[2-(1,1,2,2-tetrafluoro-ethoxy)-phenyl]-methanone]"
148 to 150,200 to 1000,"Cc1nc2c3c(nn2c(C)c1C)CN(C(=O)c1ccccc1OCCN(C)C)C3 [Example 22, [2-(2-dimethylamino-ethoxy)-phenyl]-(5,6,7-trimethyl-1H,3H-2,4,7a,8-tetraaza-cyclopenta[a]inden-2-yl)-methanone]"
223 to 227,–,"Cc1nc2c3c(nn2c(C)c1Cl)CN(C(=O)c1ccccc1CN1CCC(O)(C(F)(F)F)CC1)C3 [Example 90, (6-chloro-5,7-dimethyl-1H,3H-2,4,7a,8-tetraaza-cyclopenta[a]inden-2-yl)-[2-(4-hydroxy-4-trifluoromethyl-piperidin-1-ylmethyl)-phenyl]-methanone]"
160 to 161,1000 to 2000,"CC(C)Oc1ccccc1C(=O)N1Cc2nn3cc(Cl)cnc3c2C1 [Example 42, (6-chloro-1H,3H-2,4,7a,8-tetraaza-cyclopenta[a]inden-2-yl)-(2-isopropoxy-phenyl)-methanone]"
164 to 167,200 to 1000,CCOc1ccccc1C(=O)N1Cc2nn3c(C)c(Cl)c(C)nc3c2C1 [Example 10]
168 to 174,–,"Cc1nc2c3c(nn2c(C)c1Cl)CN(C(=O)c1ccccc1CN(CCN(C)C)CC(F)(F)F)C3 [Example 154, (6-chloro-5,7-dimethyl-1H,3H-2,4,7a,8-tetraaza-cyclopenta[a]inden-2-yl)-(2-{[(2-dimethylamino-ethyl)-(2,2,2-trifluoro-ethyl)-amino]-methyl}-phenyl)-methanone]"
156 to 159,200 to 1000,"Cc1nc2c3c(nn2c(C)c1Cl)CN(C(=O)c1ccccc1OCCN(C)C)C3 [Example 8, (6-chloro-5,7-dimethyl-1H,3H-2,4,7a,8-tetraaza-cyclopenta[a]inden-2-yl)-[2-(2-dimethylamino-ethoxy)-phenyl]-methanone]"
208 to 210,–,"O=C(c1ccc(F)cc1OC(F)(F)C(F)F)N1Cc2nn3cc(Cl)cnc3c2C1 [Example 138, (6-chloro-1H,3H-2,4,7a,8-tetraaza-cyclopenta[a]inden-2-yl)-[4-fluoro-2-(1,1,2,2-tetrafluoro-ethoxy)-phenyl]-methanone]"
183 to 185,200 to 1000,"CSCCOc1ccccc1C(=O)N1Cc2nn3c(C)c(Cl)c(C)nc3c2C1 [Example 15, (6-chloro-5,7-dimethyl-1H,3H-2,4,7a,8-tetraaza-cyclopenta[a]inden-2-yl)-[2-(2-methylsulfanyl-ethoxy)-phenyl]-methanone]"
–,1000 to 2000,"Cc1nc2c3c(nn2c(C)c1C)CN(C(=O)c1ccccc1C(F)(F)F)C3 [Example 43, (2-trifluoromethyl-phenyl)-(5,6,7-trimethyl-1H,3H-2,4,7a,8-tetraaza-cyclopenta[a]inden-2-yl)-methanone]"
–,1000 to 2000,"CCOc1ccccc1C(=O)N1Cc2nn3cc(Br)cnc3c2C1 [Example 48, (6-bromo-1H,3H-2,4,7a,8-tetraaza-cyclopenta[a]inden-2-yl)-(2-ethoxy-phenyl)-methanone]"
–,1000 to 2000,"Cc1nc2c3c(nn2c(C)c1C)CN(C(=O)c1ccccc1Br)C3 [Example 49, (2-bromo-phenyl)-(5,6,7-trimethyl-1H,3H-2,4,7a,8-tetraaza-cyclopenta[a]inden-2-yl)-methanone]"
–,1000 to 2000,"Cc1nc2c3c(nn2c(C)c1C)CN(C(=O)c1ccccc1OCc1ccccc1)C3 [Example 29, (2-benzyloxy-phenyl)-(5,6,7-trimethyl-1H,3H-2,4,7a,8-tetraaza-cyclopenta[a]inden-2-yl)-methanone]"
–,1000 to 2000,"Cc1cn2nc3c(c2nc1C)CN(C(=O)c1ccccc1N1CCCN(C)CC1)C3 [Example 33, (5,6-dimethyl-1H,3H-2,4,7a,8-tetraaza-cyclopenta[a]inden-2-yl)-[2-(4-methyl-[1,4]diazepan-1-yl)-phenyl]-methanone]"
–,< 200,"Cc1nc2c3c(nn2c(C)c1Cl)CN(C(=O)c1ccccc1OC1CCNCC1)C3 [Example 3, (6-chloro-5,7-dimethyl-1H,3H-2,4,7a,8-tetraaza-cyclopenta[a]inden-2-yl)-[2-(piperidin-4-yloxy)-phenyl]-methanone]"
